Experimental data as given in US6730326B2, “Thermodynamically stable modification of 1-(4-carbazolyl-oxy-3[2-(2-methoxyphenoxy)-ethylamino]-2-propanol process for its preparation and pharmaceutical compositions containing it” (Roche Diagnostics GmbH, priority 1997, dated 2004).

Type: physicochemical
Protocol: A 1:1 mixture of Form I and Form II was suspended in isopropanol and agitated with a magnetic stirrer for 18 h in a tightly sealed glass […]. […] Subsequently the sample was filtered with a micro glass filter funnel (G3), dried and evacuated.

COc1ccccc1OCCNCC(O)COc1cccc2[nH]c3ccccc3c12 (racemic) [Form I, (±)1-(4-carbazolyloxy)-3-[2-(2-methoxyphenoxy)ethylamno]-2-propanole]
thermodynamic stability of the modification: thermodynamically stable form
